Test results: EP0679645A1, “Pharmacologically active CNS pyridmidin compounds” (THE WELLCOME FOUNDATION LIMITED, priority 1990, dated 1991)

How the values were obtained:
[1] = system: veratrine-evoked release of glutamate; assay: Inhibition of veratrine-evoked release of glutamate from rat brain slices; type: cell-based; settings: P95 limits in brackets, read-out: IC₅₀(µM) Glutamate Release (P95 limits)
Procedure: (§1) Compounds according to the invention were tested for their effect on veratrine-evoked release of glutamate from rat brain slices according to the protocol described in Epilepsia 27(5): 490-497, 1986. The protocol for testing for inhibition of DHFR activity was a modification of that set out in Biochemical Pharmacology Vol. 20 pp 561-574, 1971.
(§2) The results are given in Table 1, the IC₅₀ being the concentration of compound to cause 50% inhibition of (a) veratrine-evoked release of glutamate and (b) of DHFR enzyme activity.

Rat Liver DHFR = target: T1, Rat Liver DHFR (Rattus norvegicus, UniProt Q920D2); assay: Inhibition of rat liver DHFR enzyme activity; type: biochemical; settings: P95 limits in brackets, read-out: IC₅₀(µM) Rat Liver DHFR (P95 limits)
T1 construct: from tissue; host or cells: rat liver
T1 sequence (Q920D2 1-187): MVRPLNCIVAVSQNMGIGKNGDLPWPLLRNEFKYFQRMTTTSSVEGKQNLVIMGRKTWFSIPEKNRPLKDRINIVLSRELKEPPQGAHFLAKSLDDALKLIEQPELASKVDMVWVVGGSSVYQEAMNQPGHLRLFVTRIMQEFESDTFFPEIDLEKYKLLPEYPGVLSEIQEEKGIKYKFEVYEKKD
Procedure: as §1, §2

Half-life in the rat = type: in vivo; settings: statement in words

SMILES | IC50 [1] | IC50 (Rat Liver DHFR) | half-life in the rat (Half-life in the rat)
Nc1ncc(-c2cc(Cl)c(N)c(Cl)c2Cl)c(N)n1 [Compound 3, 2,4-Diamino-5-(4-amino-2,3,5-trichlorophenyl)pyrimidine] | 2.5 µM | > 100 µM | 
CC(C)Nc1ncc(-c2cc(Cl)cc(Cl)c2Cl)c(N)n1 [Compound 7, 4-Amino-2-(2-iso-propylamino)-5-(2,3,5-trichlorophenyl)pyrimidine] | < 10 µM | > 100 µM | 
C[N+]1([O-])CCN(c2ncc(-c3cc(Cl)cc(Cl)c3Cl)c(N)n2)CC1 [Compound 18, 4-Amino-2-(4-methyl-4-oxide-1-piperazinyl)-5-(2,3,5-trichlorophenyl)pyrimidine] | > 10 µM | > 100 µM | 
CC(C)N1CCN(c2ncc(-c3cc(Cl)cc(Cl)c3Cl)c(N)n2)CC1 [Compound 30, 4-Amino-2-(4-isopropyl-1-piperazinyl)-5-(2,3,5-trichlorophenyl)pyrimidine] | < 10 µM | 100 µM | 
CCN1CCN(c2nc(N)c(-c3cc(Cl)cc(Cl)c3)c(C(F)(F)F)n2)CC1 [Compound 32, 4-Amino-2-(4-ethyl-1-piperazinyl)-5-(3,5-dichlorophenyl)-6-trifluoromethyl pyrimidine] | 2.43 µM | > 100 µM | 
Nc1nc(N2CCN(Cc3ccccc3)CC2)ncc1-c1cc(Cl)cc(Cl)c1Cl [Compound 22, 4-Amino-2-(4-benzyl-1-piperazinyl)-5-(2,3,5-trichlorophenyl)pyrimidine] | > 10 µM | < 100 µM | 
Cc1nc(N)nc(N)c1-c1cc(Cl)c(Cl)c(Cl)c1 [Compound 5, 2,4-Diamino-5-(3,4,5-trichlorophenyl)-6-methyl pyrimidine] | < 10 µM | < 100 µM | 
Nc1nc(N)c(-c2cc(Cl)cc(Cl)c2)c(C(F)(F)F)n1 [Compound 1, 2,4-Diamino-5-(3,5-dichlorophenyl)-6-trifluoromethyl pyrimidine] | < 10 µM | 4.59 µM | 
CCCCN1CCN(c2ncc(-c3cc(Cl)cc(Cl)c3Cl)c(N)n2)CC1 [Compound 28, 4-Amino-2-(4-n-butyl-1-piperazinyl)-5-(2,3,5-trichlorophenyl)pyrimidine] | < 10 µM | > 100 µM | 
Nc1ncc(-c2cc(Cl)c(I)c(Cl)c2Cl)c(N)n1 [Compound 9, 2,4-Diamino-5-(4-iodo-2,3,5-trichlorophenyl)pyrimidine] | < 10 µM | > 100 µM | 
C[C@@H]1CN(c2ncc(-c3cc(Cl)cc(Cl)c3Cl)c(N)n2)C[C@H](C)N1 [Compound 16, cis 4-Amino-2-(3,5-dimethyl-1-piperazinyl)-5-(2,3,5-trichlorophenyl)pyrimidine] | 10 µM | > 100 µM | 
Nc1nc(N2CCN(C3CC3)CC2)ncc1-c1cc(Cl)cc(Cl)c1Cl [Compound 31, 4-Amino-2-(4-cyclopropyl-1-piperazinyl)-5-(2,3,5-trichlorophenyl)pyrimidine] | 10 µM | > 100 µM | 
Nc1ncc(-c2cc(Cl)c(N)c(Cl)c2)c(N)n1 [Compound 25, 2,4-Diamino-5-(3,5-dichloro-4-aminophenyl)pyrimidine] | > 10 µM | 0.034 µM | 
CN1CCN(c2ncc(-c3cc(Cl)cc(Cl)c3)c(N)n2)CC1 [Compound 8, 4-Amino-5-(3,5-dichlorophenyl)-2-(4-methyl-1-piperazinyl)pyrimidine] | 0.27 µM | > 100 µM | long half-life
CN1CCN(c2nc(N)c(-c3cc(Cl)cc(Cl)c3)c(C(F)(F)F)n2)CC1 [Compound 14, 4-Amino-5-(3,5-dichlorophenyl)-2-(4-methyl-1-piperazinyl)-6-trifluoromethyl pyrimidine] | 0.137 µM | > 100 µM | 
Cc1nc(N)nc(N)c1-c1c(Cl)ccc(Cl)c1Cl [Compound 2, 2,4-Diamino-6-methyl-5-(2,3,6-trichlorophenyl)pyrimidine] | < 10 µM | > 100 µM | 
COCc1nc(N2CCN(C)CC2)nc(N)c1-c1cc(Cl)cc(Cl)c1 [Compound 11, 4-Amino-5-(3,5-dichlorophenyl)-6-methoxymethyl-2-(4-methyl-1-piperazinyl)pyrimidine] | < 10 µM | > 100 µM | 
Nc1nc(N)c(-c2cc(Cl)c(N)c(Cl)c2)c(C(F)(F)F)n1 [Compound 27, 2,4-Diamino-5-(3,5-dichloro-4-aminophenyl)-6-trifluoromethyl pyrimidine] | 10 µM | 1.54 µM | 
Nc1ncc(-c2cccc(Cl)c2Cl)c(N2CCOCC2)n1 [Compound 21, 2-Amino-5-(2,3-dichlorophenyl)-4-(N-morpholino)pyrimidine] | 10 µM | > 100 µM | 
CCN1CCN(c2ncc(-c3cc(Cl)cc(Cl)c3Cl)c(N)n2)CC1 [Compound 29, 4-Amino-2-(4-ethyl-1-piperazinyl)-5-(2,3,5-trichlorophenyl)pyrimidine] | 2.56 µM | > 100 µM | 
CN(C)S(=O)(=O)c1c(Cl)cc(-c2cnc(N)nc2N)c(Cl)c1Cl [Compound 12, 2,4-Diamino-5[4-(N',N'-dimethylsulphamoyl)-2,3,5-trichlorophenyl]pyrimidine] | < 10 µM | 13.8 µM | 
CCCN1CCN(c2ncc(-c3cc(Cl)cc(Cl)c3Cl)c(N)n2)CC1 [Compound 17, 4-Amino-2-(4-n-propyl-1-piperazinyl)-5-(2,3,5-trichlorophenyl)pyrimidine] | 2.17 µM | > 100 µM | 
Nc1ncc(-c2cc(Cl)c(Cl)c(Cl)c2Cl)c(N)n1 [Compound 15, 2,4-Diamino-5-(2,3,4,5-tetrachlorophenyl)pyrimidine] | < 10 µM | > 100 µM | 
CN1CCN(c2nc(N)ncc2-c2cccc(Cl)c2Cl)CC1 [Compound 20, 2-Amino-5-(2,3-dichlorophenyl)-4-(4-methyl-1-piperazinyl)pyrimidine] | 10 µM | > 100 µM | 
C[N+]1([O-])CCN(c2nc(N)c(-c3cc(Cl)cc(Cl)c3Cl)c(C(F)(F)F)n2)CC1 [Compound 10, 4-Amino-2-(4-methyl-4-oxide-1-piperazinyl)-5-(2,3,5-trichlorophenyl)-6-trifluoromethyl-pyrimidine] | > 10 µM | > 100 µM | 
Cc1nc(N)nc(N)c1-c1cc(Cl)c(N)c(Cl)c1 [Compound 26, 2,4-Diamino-5-(3,5-dichloro-4-aminophenyl)-6-methyl pyrimidine] | < 10 µM | 0.034 µM | 
Cc1nc(N2CCN(C)CC2)nc(N)c1-c1cc(Cl)c(Cl)c(Cl)c1 [Compound 4, 4-Amino-2-(4-methyl-1-piperazinyl)-6-methyl-5-(3,4,5-trichlorophenyl)pyrimidine] | < 10 µM | 100 µM | 
Cc1nc(N)nc(N)c1-c1cc(Cl)cc(Cl)c1[N+](=O)[O-] [Compound 19, 2,4-Diamino-5-(3,5-dichloro-2-nitrophenyl)-6-methyl-pyrimidine] | < 10 µM | 5.56 µM | 
CCN(CC)c1ncc(-c2cc(Cl)cc(Cl)c2Cl)c(N)n1 [Compound 6, 4-Amino-2-diethylamino-5-(2,3,5-trichlorophenyl)pyrimidine] | 10 µM | > 100 µM | 
